Like-named read-outs stand apart in the source and are kept apart here.
Key:
Format in all cases: in vivo
[1] = test system: chickweed (Stellaria media); experiment: Test C postemergence; settings: Stellaria media, post-emergence
In short: (§1)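 Seeds sown and sprayed preemergence with test compound in non-phytotoxic solvent containing surfactant; postemergence sprays, same formulation, went onto plants 2 to 18 cm tall (1- to 4-leaf stage). Plants held in greenhouse 12 to 14 days, then visually rated against untreated controls on a 0–100 scale (0 no effect, 100 complete control).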

[2] = test system: Surinam grass (Brachiaria decumbens); experiment: Test C pre/postemergence; settings: Urochloa decumbens; for pest or weed control at 16 g/ha: 16 g ai/ha; for pest or weed control at 31 g/ha: 31 g ai/ha; for pest or weed control at 62 g/ha: 62 g ai/ha
In short: as §1

[3] = test system: woolly cupgrass (Eriochloa villosa); experiment: Test C pre/postemergence; settings: Eriochloa villosa; for pest or weed control at 16 g/ha: 16 g ai/ha; for pest or weed control at 31 g/ha: 31 g ai/ha; for pest or weed control at 62 g/ha: 62 g ai/ha; for pest or weed control at 125 g/ha: 125 g ai/ha
In short: as §1

[4] = test system: common (oilseed) sunflower (Helianthus annuus); experiment: Test C pre/postemergence; settings: Helianthus annuus, pre-emergence, Preemergence, scale 0 to 100, 0 no effect, 100 complete control, read-out: Plant response rating, Sunflower
In short: as §1

soybean (Glycine max) = experiment: Test C pre/postemergence; settings: Glycine max; for plant injury at 16 g/ha: 16 g ai/ha; for plant injury at 31 g/ha: 31 g ai/ha; for plant injury at 62 g/ha: 62 g ai/ha
In short: as §1

[5] = test system: yellow nutsedge (Cyperus esculentus); experiment: Test C pre/postemergence; settings: Cyperus; for pest or weed control at 16 g/ha: 16 g ai/ha; for pest or weed control at 31 g/ha: 31 g ai/ha; for pest or weed control at 62 g/ha: 62 g ai/ha
In short: as §1

[6] = test system: common ragweed (Ambrosia elatior); experiment: Test C pre/postemergence; settings: Ambrosia artemisiifolia; for pest or weed control at 16 g/ha: 16 g ai/ha; for pest or weed control at 31 g/ha: 31 g ai/ha; for pest or weed control at 62 g/ha: 62 g ai/ha
In short: as §1

[7] = test system: johnsongrass (Sorghum halepense); experiment: Test C pre/postemergence; settings: Sorghum halepense; for pest or weed control at 16 g/ha: 16 g ai/ha; for pest or weed control at 31 g/ha: 31 g ai/ha; for pest or weed control at 62 g/ha: 62 g ai/ha; for pest or weed control at 125 g/ha: 125 g ai/ha
In short: as §1

[8] = test system: pigweed (Amaranthus retroflexus); experiment: Test C pre/postemergence; settings: Amaranthus retroflexus; for pest or weed control at 16 g/ha: 16 g ai/ha; for pest or weed control at 31 g/ha: 31 g ai/ha; for pest or weed control at 62 g/ha: 62 g ai/ha
In short: as §1

[9] = test system: morningglory (Ipomoea coccinea); experiment: Test C pre/postemergence; settings: Ipomoea; for pest or weed control at 16 g/ha: 16 g ai/ha; for pest or weed control at 31 g/ha: 31 g ai/ha; for pest or weed control at 62 g/ha: 62 g ai/ha; for pest or weed control at 125 g/ha: 125 g ai/ha
In short: as §1

kochia (Kochia scoparia) = experiment: Test C pre/postemergence; settings: Bassia scoparia; for pest or weed control at 16 g/ha: 16 g ai/ha; for pest or weed control at 31 g/ha: 31 g ai/ha; for pest or weed control at 62 g/ha: 62 g ai/ha; for pest or weed control at 125 g/ha: 125 g ai/ha
In short: as §1

[10] = test system: giant foxtail (Setaria faberii); experiment: Test C pre/postemergence; settings: Setaria faberi; for pest or weed control at 125 g/ha: 125 g ai/ha; for pest or weed control at 16 g/ha: 16 g ai/ha; for pest or weed control at 31 g/ha: 31 g ai/ha; for pest or weed control at 62 g/ha: 62 g ai/ha
In short: as §1

[11] = post-emergence, Postemergence, read-out: Plant response rating (scale of 0 to 100), Surinam Grass
[12] = pre-emergence, Preemergence, scale 0 to 100, 0 no effect, 100 complete control, read-out: Plant response rating, Surinam Grass
[13] = post-emergence, Postemergence, read-out: Plant response rating (scale of 0 to 100), Cupgrass, Woolly
[14] = pre-emergence, Preemergence, scale 0 to 100, 0 no effect, 100 complete control, read-out: Plant response rating, Cupgrass, Woolly
[15] = post-emergence, Postemergence, read-out: Plant response rating (scale of 0 to 100), Soybean
[16] = pre-emergence, Preemergence, scale 0 to 100, 0 no effect, 100 complete control, read-out: Plant response rating, Soybean
[17] = post-emergence, Postemergence, read-out: Plant response rating (scale of 0 to 100), Nutsedge, Yellow
[18] = pre-emergence, Preemergence, scale 0 to 100, 0 no effect, 100 complete control, read-out: Plant response rating, Nutsedge, Yellow
[19] = post-emergence, Postemergence, read-out: Plant response rating (scale of 0 to 100), Ragweed
[20] = pre-emergence, Preemergence, scale 0 to 100, 0 no effect, 100 complete control, read-out: Plant response rating, Ragweed
[21] = post-emergence, Postemergence, read-out: Plant response rating (scale of 0 to 100), Johnsongrass
[22] = pre-emergence, Preemergence, scale 0 to 100, 0 no effect, 100 complete control, read-out: Plant response rating, Johnsongrass
[23] = post-emergence, Postemergence, read-out: Plant response rating (scale of 0 to 100), Pigweed
[24] = pre-emergence, Preemergence, scale 0 to 100, 0 no effect, 100 complete control, read-out: Plant response rating, Pigweed
[25] = post-emergence, Postemergence, read-out: Plant response rating (scale of 0 to 100), Morningglory
[26] = pre-emergence, Preemergence, scale 0 to 100, 0 no effect, 100 complete control, read-out: Plant response rating, Morningglory
[27] = post-emergence, Postemergence, read-out: Plant response rating (scale of 0 to 100), Kochia
[28] = pre-emergence, Preemergence, scale 0 to 100, 0 no effect, 100 complete control, read-out: Plant response rating, Kochia
[29] = post-emergence, Postemergence, read-out: Plant response rating (scale of 0 to 100), Foxtail, Giant
[30] = pre-emergence, Preemergence, scale 0 to 100, 0 no effect, 100 complete control, read-out: Plant response rating, Foxtail, Giant

## Nc1nc(-c2ccc(Cl)cc2)nc(C(=O)O)c1Cl [Compound 65, 6-amino-5-chloro-2-(4-chlorophenyl)-4-pyrimidinecarboxylic acid]
[1]; 16 g ai/ha, read-out: Plant response rating (scale of 0 to 100), Chickweed
  pest or weed control at 16 g/ha: 60%
[1]; 31 g ai/ha, read-out: Plant response rating (scale of 0 to 100), Chickweed
  pest or weed control at 31 g/ha: 60%
[1]; 62 g ai/ha, read-out: Plant response rating (scale of 0 to 100), Chickweed
  pest or weed control at 62 g/ha: 60%
[1]; 125 g ai/ha, scale 0 to 100 (0 no effect, 100 complete control), read-out: Chickweed plant response rating
  pest or weed control at 125 g/ha: 70%
[2]; post-emergence, Postemergence, 125 g ai/ha, scale 0 to 100 (0 no effect, 100 complete control), read-out: Surinam Grass plant response rating
  pest or weed control at 125 g/ha: 80%
[2]; [11]
  pest or weed control at 16 g/ha: 60%
  pest or weed control at 31 g/ha: 80%
  pest or weed control at 62 g/ha: 80%
[2]; [12]
  pest or weed control at 16 g/ha: 0%
  pest or weed control at 31 g/ha: 40%
  pest or weed control at 62 g/ha: 80%
[3]; [13]
  pest or weed control at 16 g/ha: 60%
  pest or weed control at 31 g/ha: 80%
  pest or weed control at 62 g/ha: 85%
[3]; post-emergence, Postemergence, scale 0 to 100 (0 no effect, 100 complete control), read-out: Cupgrass, Woolly plant response rating
  pest or weed control at 125 g/ha: 85%
[3]; [14]
  pest or weed control at 16 g/ha: 0%
  pest or weed control at 31 g/ha: 0%
  pest or weed control at 62 g/ha: 5%
[3]; pre-emergence, Preemergence, scale 0 to 100, read-out: Plant response rating, Cupgrass, Woolly
  pest or weed control at 125 g/ha: 70%
[4]; 16 g ai/ha
  pest or weed control at 16 g/ha: 40%
[4]; 31 g ai/ha
  pest or weed control at 31 g/ha: 70%
[4]; 62 g ai/ha
  pest or weed control at 62 g/ha: 95%
Soybean (Glycine max); [15]
  plant injury at 16 g/ha: 100%
  plant injury at 31 g/ha: 100%
  plant injury at 62 g/ha: 100%
Soybean (Glycine max); post-emergence, Postemergence, 125 g ai/ha, scale 0 to 100 (0 no effect, 100 complete control), read-out: Soybean plant response rating
  plant injury at 125 g/ha: 100%
Soybean (Glycine max); [16]
  plant injury at 16 g/ha: 85%
  plant injury at 31 g/ha: 95%
  plant injury at 62 g/ha: 95%
[5]; [17]
  pest or weed control at 16 g/ha: 0%
  pest or weed control at 31 g/ha: 0%
  pest or weed control at 62 g/ha: 20%
[5]; post-emergence, Postemergence, 125 g ai/ha, scale 0 to 100 (0 no effect, 100 complete control), read-out: Nutsedge, Yellow plant response rating
  pest or weed control at 125 g/ha: 50%
[5]; [18]
  pest or weed control at 16 g/ha: 0%
  pest or weed control at 31 g/ha: 0%
  pest or weed control at 62 g/ha: 30%
[6]; [19]
  pest or weed control at 16 g/ha: 80%
  pest or weed control at 31 g/ha: 90%
  pest or weed control at 62 g/ha: 95%
[6]; post-emergence, Postemergence, 125 g ai/ha, scale 0 to 100 (0 no effect, 100 complete control), read-out: Ragweed plant response rating
  pest or weed control at 125 g/ha: 95%
[6]; [20]
  pest or weed control at 16 g/ha: 85%
  pest or weed control at 31 g/ha: 85%
  pest or weed control at 62 g/ha: 90%
[7]; [21]
  pest or weed control at 16 g/ha: 45%
  pest or weed control at 31 g/ha: 60%
  pest or weed control at 62 g/ha: 85%
[7]; post-emergence, Postemergence, scale 0 to 100 (0 no effect, 100 complete control), read-out: Johnsongrass plant response rating
  pest or weed control at 125 g/ha: 85%
[7]; [22]
  pest or weed control at 16 g/ha: 0%
  pest or weed control at 31 g/ha: 50%
  pest or weed control at 62 g/ha: 60%
[7]; pre-emergence, Preemergence, scale 0 to 100, read-out: Plant response rating, Johnsongrass
  pest or weed control at 125 g/ha: 70%
[8]; [23]
  pest or weed control at 16 g/ha: 90%
  pest or weed control at 31 g/ha: 90%
  pest or weed control at 62 g/ha: 100%
[8]; post-emergence, Postemergence, 125 g ai/ha, scale 0 to 100 (0 no effect, 100 complete control), read-out: Pigweed plant response rating
  pest or weed control at 125 g/ha: 100%
[8]; [24]
  pest or weed control at 16 g/ha: 40%
  pest or weed control at 31 g/ha: 80%
  pest or weed control at 62 g/ha: 80%
[9]; [25]
  pest or weed control at 16 g/ha: 90%
  pest or weed control at 31 g/ha: 90%
  pest or weed control at 62 g/ha: 90%
[9]; post-emergence, Postemergence, scale 0 to 100 (0 no effect, 100 complete control), read-out: Morningglory plant response rating
  pest or weed control at 125 g/ha: 95%
[9]; [26]
  pest or weed control at 16 g/ha: 0%
  pest or weed control at 31 g/ha: 0%
  pest or weed control at 62 g/ha: 20%
[9]; pre-emergence, Preemergence, scale 0 to 100, read-out: Plant response rating, Morningglory
  pest or weed control at 125 g/ha: 100%
Kochia (Kochia scoparia); [27]
  pest or weed control at 16 g/ha: 85%
  pest or weed control at 31 g/ha: 85%
  pest or weed control at 62 g/ha: 85%
Kochia (Kochia scoparia); post-emergence, Postemergence, scale 0 to 100 (0 no effect, 100 complete control), read-out: Kochia plant response rating
  pest or weed control at 125 g/ha: 90%
Kochia (Kochia scoparia); [28]
  pest or weed control at 16 g/ha: 0%
  pest or weed control at 31 g/ha: 0%
  pest or weed control at 62 g/ha: 50%
Kochia (Kochia scoparia); pre-emergence, Preemergence, scale 0 to 100, read-out: Plant response rating, Kochia
  pest or weed control at 125 g/ha: 70%
[10]; post-emergence, Postemergence, scale 0 to 100 (0 no effect, 100 complete control), read-out: Foxtail, Giant plant response rating
  pest or weed control at 125 g/ha: 70%
[10]; [29]
  pest or weed control at 16 g/ha: 50%
  pest or weed control at 31 g/ha: 60%
  pest or weed control at 62 g/ha: 70%
[10]; [30]
  pest or weed control at 16 g/ha: 0%
  pest or weed control at 31 g/ha: 10%
  pest or weed control at 62 g/ha: 50%
[10]; pre-emergence, Preemergence, scale 0 to 100, read-out: Plant response rating, Foxtail, Giant
  pest or weed control at 125 g/ha: 60%

From US8802597B2, “Herbicidal pyrimidines” (E I du Pont de Nemours and Company, priority 2003, dated 2014)
